Measured values from patent US12146004B2, “Polymyxin compounds and uses thereof” (priority 2014, dated 2024).
Values after ≈ are worked out from the molar mass of the structure shown. Where two headings read alike, the source gives them in different places.

Tests used:
Assay type in all cases: cell-based
Pseudomonas aeruginosa = system: Pseudomonas aeruginosa
Experimental: (§1) To evaluate the potency and spectrum of the compounds, susceptibility testing was performed against up to nine strains of each of the Gram negative pathogens, Escherichia coli, Pseudomonas aeruginosa, Klebsiella pneumoniae and Acinetobacter baumannii.
(§2) The values in Table 2 are MIC (μg/mL) against strains of E. coli, K. pneumoniae, P. aeruginosa and A. baumanii, including strains which show elevated MICs to Polymyxin.
(§3) The values in Table 2A are MIC (μg/mL).
(§4) The in vitro activity of compounds 26 and C7 (FADDI-02) against resistant bacterial strains was compared. The resistant strains included including Escherichia coli, Pseudomonas aeruginosa, Klebsiella pneumoniae and Acinetobacter baumannii strains. The data is provided in Table 2C, where the strains are identified. The values in Table 2 are MIC (μg/mL).

Escherichia coli = system: Escherichia coli
Experimental: as §1, §2, §3, §4

Acinetobacter baumannii = system: Acinetobacter baumannii
Experimental: as §1, §2, §3, §4

Klebsiella pneumoniae = system: Klebsiella pneumoniae
Experimental: as §1, §2, §3, §4

SMILES | MIC P. aeruginosa 068 (Pseudomonas aeruginosa; strain 068) [µg/mL] | MIC P. aeruginosa 070 (Pseudomonas aeruginosa; strain 070) [µg/mL] | MIC P. aeruginosa ATCC 27853 (Pseudomonas aeruginosa; strain ATCC 27853) [µg/mL] | MIC P. aeruginosa CCUG 59347 (Pseudomonas aeruginosa; strain CCUG 59347) [µg/mL] | MIC E. coli 058 (Escherichia coli; strain 058) [µg/mL] | MIC E. coli 061 (Escherichia coli; strain 061) [µg/mL] | MIC E. coli ATCC 25922 (Escherichia coli; strain ATCC 25922) [µg/mL] | MIC A. baumanii 053 (Acinetobacter baumannii; strain 053) [µg/mL] | MIC A. baumanii 056 (Acinetobacter baumannii; strain 056) [µg/mL] | MIC A. baumanii ATCC BAA-747 (Acinetobacter baumannii; strain ATCC BAA-747) [µg/mL] | MIC A. baumanii NCTC 13424 (Acinetobacter baumannii; strain NCTC 13424) [µg/mL] | MIC K. pneumoniae 063 (Klebsiella pneumoniae; strain 063) [µg/mL] | MIC K. pneumoniae 065 (Klebsiella pneumoniae; strain 065) [µg/mL] | MIC K. pneumoniae ATCC 13882 (Klebsiella pneumoniae; strain ATCC 13882) [µg/mL] | MIC P. aeruginosa CCUG 59347 (Pseudomonas aeruginosa) [µg/mL] | MIC E. coli 058 (Escherichia coli) [µg/mL] | MIC E. coli ATCC 25922 (Escherichia coli) [µg/mL] | MIC A. baumanii ATCC BAA-747 (Acinetobacter baumannii) [µg/mL] | MIC A. baumanii NCTC 13424 (Acinetobacter baumannii) [µg/mL] | MIC K. pneumoniae ATCC 13882 (Klebsiella pneumoniae) [µg/mL] | further results
CC(C)C[C@@H]1NC(=O)[C@@H](CC2CCCCC2)NC(=O)[C@H](CCN)NC(=O)[C@@H](NC(=O)[C@H](CN)NC(=O)[C@@H](NC(=O)CC(CN)C2CCCCC2)C(C)O)CCNC(=O)[C@H]([C@@H](C)O)NC(=O)[C@H](CCN)NC(=O)[C@H](CCN)NC1=O (single isomer, unassigned; isomer 1) [Example 42, 4-amino-3-cyclohexylbutanoyl L-Thr-L-Dap-polymyxin [D-cyclohexylalanine]-6 heptapeptide. Isomer 1] | 2 (≈ 1.78 µM) | 4 (≈ 3.56 µM) | 0.5 (≈ 0.445 µM) | 0.5 (≈ 0.445 µM) | 4 (≈ 3.56 µM) | 8 (≈ 7.13 µM) | 0.5 (≈ 0.445 µM) | >64 | 32 (≈ 28.5 µM) | 0.125 (≈ 0.111 µM) | 0.125 (≈ 0.111 µM) | 32 (≈ 28.5 µM) | 2 (≈ 1.78 µM) | 0.25 (≈ 0.223 µM) |  |  |  |  |  |  | MIC E. coli NCTC 9001 (Escherichia coli; strain NCTC 9001): 0.06 µg/mL (≈ 0.0535 µM)
CC(C)C[C@@H]1NC(=O)[C@@H](CC2CCCCC2)NC(=O)[C@H](CCN)NC(=O)[C@@H](NC(=O)[C@H](CN)NC(=O)[C@@H](NC(=O)CC(CN)c2ccc(Cl)cc2)C(C)O)CCNC(=O)[C@H]([C@@H](C)O)NC(=O)[C@H](CCN)NC(=O)[C@H](CCN)NC1=O (single isomer, unassigned; isomer 1) [Example 50, 4-amino-3-(4-chlorophenyl) butanoyl L-Thr-L-Dap-polymyxin [D-cyclohexylalanine]-6 heptapeptide. Isomer 1] |  |  |  |  |  |  |  |  |  |  |  |  |  |  | 0.5 (≈ 0.434 µM) | 2 (≈ 1.74 µM) | 0.5 (≈ 0.434 µM) | 0.125 (≈ 0.109 µM) | 0.25 (≈ 0.217 µM) | 0.25 (≈ 0.217 µM) | MIC P. aeruginosa 068 (Pseudomonas aeruginosa): 1 µg/mL (≈ 0.869 µM); MIC P. aeruginosa 070 (Pseudomonas aeruginosa): 2 µg/mL (≈ 1.74 µM); MIC P. aeruginosa ATCC 27853 (Pseudomonas aeruginosa): 0.25 µg/mL (≈ 0.217 µM); MIC E. coli 061 (Escherichia coli): 16 µg/mL (≈ 13.9 µM); MIC A. baumanii 053 (Acinetobacter baumannii): 32 µg/mL (≈ 27.8 µM); MIC A. baumanii 056 (Acinetobacter baumannii): 16 µg/mL (≈ 13.9 µM); MIC K. pneumoniae 065 (Klebsiella pneumoniae): 1 µg/mL (≈ 0.869 µM)
CC(C)C[C@@H]1NC(=O)[C@@H](CC2CCCCC2)NC(=O)[C@H](CCN)NC(=O)[C@@H](NC(=O)[C@H](CCN)NC(=O)[C@@H](NC(=O)CC(CN)c2ccccc2)[C@@H](C)O)CCNC(=O)[C@H]([C@@H](C)O)NC(=O)[C@H](CCN)NC(=O)[C@H](CCN)NC1=O (single isomer, unassigned; isomer 1) [Example 56, 4-amino-3-phenylbutanoyl polymyxin [D-cyclohexylalanine]-6 nonapeptide isomer 1] |  |  | 0.25 (≈ 0.221 µM) | 0.5 (≈ 0.442 µM) | 16 (≈ 14.2 µM) |  | 0.25 (≈ 0.221 µM) |  |  | 0.125 (≈ 0.111 µM) | 0.125 (≈ 0.111 µM) |  | 16 (≈ 14.2 µM) | 0.25 (≈ 0.221 µM) |  |  |  |  |  |  | 
CC(C)C[C@@H]1NC(=O)[C@@H](CC2CCCCC2)NC(=O)[C@H](CCN)NC(=O)[C@@H](NC(=O)[C@H](CN)NC(=O)[C@@H](NC(=O)CC(CN)Cc2ccccc2)[C@@H](C)O)CCNC(=O)[C@H]([C@@H](C)O)NC(=O)[C@H](CCN)NC(=O)[C@H](CCN)NC1=O (single isomer, unassigned; isomer 1) [Example 58, 4-amino-3-benzylbutanoyl L-Thr-L-Dap-polymyxin [D-cyclohexylalanine]-6 heptapeptide. Isomer 1] | 2 (≈ 1.77 µM) | 8 (≈ 7.08 µM) | 0.25 (≈ 0.221 µM) | 0.25 (≈ 0.221 µM) | 4 (≈ 3.54 µM) | 16 (≈ 14.2 µM) | 0.25 (≈ 0.221 µM) | 64 (≈ 56.6 µM) | 64 (≈ 56.6 µM) | 0.03 (≈ 0.0265 µM) | 0.125 (≈ 0.111 µM) | 64 (≈ 56.6 µM) | 4 (≈ 3.54 µM) | 0.25 (≈ 0.221 µM) |  |  |  |  |  |  | MIC E. coli NCTC 9001 (Escherichia coli; strain NCTC 9001): 0.125 µg/mL (≈ 0.111 µM)
CC(C)C[C@@H]1NC(=O)[C@@H](CC2CCCCC2)NC(=O)[C@H](CCN)NC(=O)[C@@H](NC(=O)[C@H](CN)NC(=O)[C@@H](NC(=O)CCC(N)c2ccccc2)[C@@H](C)O)CCNC(=O)[C@H]([C@@H](C)O)NC(=O)[C@H](CCN)NC(=O)[C@H](CCN)NC1=O (single isomer, unassigned; isomer 1) [Example 60, 4-amino-4-phenylbutanoyl L-Thr-L-Dap-polymyxin [D-cyclohexylalanine]-6 heptapeptide. Isomer 1] |  |  |  |  |  |  |  |  |  |  |  |  |  |  | 1 (≈ 0.896 µM) | 16 (≈ 14.3 µM) | 0.5 (≈ 0.448 µM) | 0.5 (≈ 0.448 µM) | 1 (≈ 0.896 µM) | 0.5 (≈ 0.448 µM) | 
CC(C)C[C@@H]1NC(=O)[C@@H](CC2CCCCC2)NC(=O)[C@H](CCN)NC(=O)[C@@H](NC(=O)[C@H](CCN)NC(=O)[C@@H](NC(=O)CC(CN)Cc2ccccc2)[C@@H](C)O)CCNC(=O)[C@H]([C@@H](C)O)NC(=O)[C@H](CCN)NC(=O)[C@H](CCN)NC1=O (single isomer, unassigned; isomer 1) [Example 66, 4-amino-3-benzylbutanoyl polymyxin [D-cyclohexylalanine]-6 nonapeptide isomer 1] | 8 (≈ 6.99 µM) | 32 (≈ 28 µM) | 0.25 (≈ 0.218 µM) | 0.5 (≈ 0.437 µM) | 8 (≈ 6.99 µM) | 32 (≈ 28 µM) | 0.125 (≈ 0.109 µM) | >64 | 64 (≈ 55.9 µM) | 0.125 (≈ 0.109 µM) | 0.06 (≈ 0.0524 µM) | 64 (≈ 55.9 µM) | 4 (≈ 3.5 µM) | 0.125 (≈ 0.109 µM) |  |  |  |  |  |  | 
CC(C)C[C@@H]1NC(=O)[C@@H](CC2CCCCC2)NC(=O)[C@H](CCN)NC(=O)[C@@H](NC(=O)[C@H](CN)NC(=O)[C@@H](NC(=O)C(CCN)OCc2cccc(Cl)c2)[C@@H](C)O)CCNC(=O)[C@H]([C@@H](C)O)NC(=O)[C@H](CCN)NC(=O)[C@H](CCN)NC1=O (single isomer, unassigned; isomer 1) [Example 82, 4-amino-2-((3-chlorobenzyl)oxy) butanoyl L-Thr-L-Dap-polymyxin [D-cyclohexylalanine-6]heptapeptide. Isomer 1] |  |  |  |  |  |  |  |  |  |  |  |  |  |  | 0.125 (≈ 0.106 µM) | 2 (≈ 1.69 µM) | 0.06 (≈ 0.0508 µM) | 0.125 (≈ 0.106 µM) | 0.03 (≈ 0.0254 µM) | 0.125 (≈ 0.106 µM) | MIC P. aeruginosa 068 (Pseudomonas aeruginosa): 4 µg/mL (≈ 3.39 µM); MIC P. aeruginosa 070 (Pseudomonas aeruginosa): 8 µg/mL (≈ 6.77 µM); MIC P. aeruginosa ATCC 27853 (Pseudomonas aeruginosa): 0.125 µg/mL (≈ 0.106 µM); MIC E. coli 061 (Escherichia coli): 8 µg/mL (≈ 6.77 µM); MIC E. coli NCTC 9001 (Escherichia coli): 0.015 µg/mL (≈ 0.0127 µM); MIC A. baumanii 053 (Acinetobacter baumannii): 64 µg/mL (≈ 54.2 µM); MIC A. baumanii 056 (Acinetobacter baumannii): 16 µg/mL (≈ 13.5 µM); MIC K. pneumoniae 063 (Klebsiella pneumoniae): 32 µg/mL (≈ 27.1 µM); MIC K. pneumoniae 065 (Klebsiella pneumoniae): 2 µg/mL (≈ 1.69 µM)
